Assay results reported in patent US20210395313A1, “PEPTIDE PAC1 ANTAGONISTS” (AMGEN INC., priority 2017, published 2021).
Where a SMILES comes first, the peptide text is derived from it. Bridges are numbered along the chain shown (N, C = ends). Where no end group is shown, it is not given here.

Target: T1, rat PAC1 receptor (Rattus norvegicus, UniProt P32215)
T1 construct: SHSY-5Y (human neuroblastoma cell line) and RG-2 (rat glioma cell line) cells endogenously express human and rat PAC1 receptors, respectively; endogenous in cells; host or cells: RG-2 rat glioma cells
T1 sequence (P32215 20-523): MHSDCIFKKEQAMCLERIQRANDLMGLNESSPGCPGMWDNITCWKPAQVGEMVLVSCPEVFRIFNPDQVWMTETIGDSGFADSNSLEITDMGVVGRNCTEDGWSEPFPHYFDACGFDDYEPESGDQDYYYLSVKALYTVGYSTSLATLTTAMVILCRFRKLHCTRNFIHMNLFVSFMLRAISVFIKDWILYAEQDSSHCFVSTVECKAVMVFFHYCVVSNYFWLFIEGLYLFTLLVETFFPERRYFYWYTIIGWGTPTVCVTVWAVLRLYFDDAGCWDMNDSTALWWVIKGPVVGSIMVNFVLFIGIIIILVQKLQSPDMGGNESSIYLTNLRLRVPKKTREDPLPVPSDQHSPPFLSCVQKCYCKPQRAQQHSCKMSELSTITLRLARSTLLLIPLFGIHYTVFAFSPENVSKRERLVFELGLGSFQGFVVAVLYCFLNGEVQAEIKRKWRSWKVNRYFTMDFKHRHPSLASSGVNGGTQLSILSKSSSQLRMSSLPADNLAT
Assay: LANCE Ultra cAMP accumulation antagonist assay in RG-2 cells;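 note: RG-2 rat glioma cells endogenously expressing PAC1, test peptide preincubated 30 min, then PAC1 agonist added at its EC80 for 15 min, cAMP accumulation read by LANCE Ultra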
Type: cell-based

Q: With “CDATCQFRKAIDDCQKQAHHSNVPGSVFKACMKQKKKEFKAN (disulfide 1-5, 14-31) [compound 202]” as the compound, how does the IC50 read?
A: 0.01 to 1 nM

Q: How did the IC50 turn out when “CDATCQFRKAIDDCQKQAHHSNVPGSVFKACMKQKKKEFKAGH (disulfide 1-5, 14-31) [compound 171]” was run?
A: 0.01 to 1 nM

Q: With `CC[C@H](C)[C@H](NC(=O)[C@H](C)NC(=O)[C@H](CCCCN)NC(=O)[C@H](CCCNC(=N)N)NC(=O)[C@H](Cc1ccccc1)NC(=O)[C@H](CCC(N)=O)NC(=O)[C@@H]1CSSC[C@H](N)C(=O)N[C@@H](CC(=O)O)C(=O)N[C@@H](C)C(=O)N[C@@H]([C@@H](C)O)C(=O)N1)C(=O)N[C@@H](CC(=O)O)C(=O)N[C@@H](CC(=O)O)C(=O)N[C@H]1CSSC[C@@H](C(=O)N[C@@H](CCSC)C(=O)N[C@@H](CCCCN)C(=O)N[C@@H](CCC(N)=O)C(=O)N[C@@H](CCCCN)C(=O)N[C@@H](CCCCN)C(=O)N[C@@H](CCCCN)C(=O)N[C@@H](CCC(=O)O)C(=O)N[C@@H](Cc2c[nH]c3ccccc23)C(=O)N[C@@H](CCCCN)C(=O)N[C@@H](C)C(=O)NCC(=O)N[C@@H](Cc2c[nH]cn2)C(=O)O)NC(=O)[C@H](C)NC(=O)[C@H](CCCCN)NC(=O)[C@H](Cc2ccccc2)NC(=O)[C@H](CCC(N)=O)NC(=O)[C@H](CCCNC(=N)N)NC(=O)[C@H](C)NC1=O` [compound 447] (H-CDATCQFRKAIDDCARQFKACMKQKKKEWKAGH-OH; disulfide 1-5, 14-21) as the compound, how does the IC50 read?
A: 0.01 to 1 nM

Q: `CC[C@H](C)[C@H](NC(=O)[C@H](C)NC(=O)[C@H](CCCCN)NC(=O)[C@H](CCCNC(=N)N)NC(=O)[C@H](Cc1ccccc1)NC(=O)[C@H](CCC(N)=O)NC(=O)[C@@H]1CSSC[C@H](N)C(=O)N[C@@H](CC(=O)O)C(=O)N[C@@H](C)C(=O)N[C@@H]([C@@H](C)O)C(=O)N1)C(=O)N[C@@H](CC(=O)O)C(=O)N[C@@H](CC(=O)O)C(=O)N[C@H]1CSSC[C@@H](C(=O)N[C@@H](CCSC)C(=O)N[C@@H](CCCCN)C(=O)N[C@@H](CCC(N)=O)C(=O)N[C@@H](CCCCN)C(=O)N[C@@H](CCCCN)C(=O)N[C@@H](CCCCN)C(=O)N[C@@H](CCC(=O)O)C(=O)N[C@@H](Cc2c[nH]c3ccccc23)C(=O)N[C@@H](CCCCN)C(=O)N[C@@H](C)C(=O)NCC(N)=O)NC(=O)[C@H](C)NC(=O)[C@H](CCCCN)NC(=O)[C@H](Cc2ccccc2)NC(=O)[C@H](C(C)C)NC(=O)[C@H](CO)NC(=O)[C@H](C)NC(=O)[C@H](Cc2c[nH]cn2)NC(=O)[C@H](Cc2ccc(O)cc2)NC(=O)[C@H](C)NC(=O)[C@H](CCC(N)=O)NC(=O)[C@H](CCCNC(=N)N)NC(=O)[C@H](C)NC1=O` [compound 428] (H-CDATCQFRKAIDDCARQAYHASVFKACMKQKKKEWKAG-NH2; disulfide 1-5, 14-27) was tested. Which IC50 did it give?
A: < 0.01 nM

Q: For `CC[C@H](C)[C@H](NC(=O)[C@H](C)NC(=O)[C@H](CCCCN)NC(=O)[C@H](CCCNC(=N)N)NC(=O)[C@H](Cc1ccccc1)NC(=O)[C@H](CCC(N)=O)NC(=O)[C@@H]1CSSC[C@H](N)C(=O)N[C@@H](CC(=O)O)C(=O)N[C@@H](C)C(=O)N[C@@H]([C@@H](C)O)C(=O)N1)C(=O)N[C@@H](CC(=O)O)C(=O)N[C@@H](CC(=O)O)C(=O)N[C@H]1CSSC[C@@H](C(=O)N[C@@H](CCSC)C(=O)N[C@@H](CCCCN)C(=O)N[C@@H](CCC(N)=O)C(=O)N[C@@H](CCCCN)C(=O)N[C@@H](CCCCN)C(=O)N[C@@H](CCCCN)C(=O)N[C@@H](CCC(=O)O)C(=O)N[C@@H](Cc2c[nH]c3ccccc23)C(=O)N[C@@H](CCCCN)C(=O)N[C@@H](C)C(=O)NCC(N)=O)NC(=O)[C@H](C)NC(=O)[C@H](CCCCN)NC(=O)[C@H](Cc2ccccc2)NC(=O)[C@H](C(C)C)NC(=O)[C@H](CO)NC(=O)[C@H](CO)NC(=O)[C@H](Cc2c[nH]cn2)NC(=O)[C@H](CO)NC(=O)[C@H](C)NC(=O)[C@H](CCC(N)=O)NC(=O)[C@H](CCCNC(=N)N)NC(=O)[C@H](C)NC1=O` [compound 433] (H-CDATCQFRKAIDDCARQASHSSVFKACMKQKKKEWKAG-NH2; disulfide 1-5, 14-27), which IC50 is on record?
A: < 0.01 nM

Q: For “CDATCQFRKAIDDCQKQAHHSNVPGSVFKACMKQKKKEFKAGR (disulfide 1-5, 14-31) [compound 170]”, which IC50 is on record?
A: 0.01 to 1 nM

Q: For “CDATCQFRKCIDDWQKQAHHSNVPGSVFKARMKQCKKEFKAG-NH2 (disulfide 1-5, 10-35) [compound 176]”, which IC50 is on record?
A: 1 to 100 nM

Q: Which IC50 does the source give for `CC[C@H](C)[C@H](NC(=O)[C@H](C)NC(=O)[C@H](CCCCN)NC(=O)[C@H](CCCNC(=N)N)NC(=O)[C@H](Cc1ccccc1)NC(=O)[C@H](CCC(N)=O)NC(=O)[C@@H]1CSSC[C@H](N)C(=O)N[C@@H](CC(=O)O)C(=O)N[C@@H](C)C(=O)N[C@@H]([C@@H](C)O)C(=O)N1)C(=O)N[C@@H](CC(=O)O)C(=O)N[C@@H](CC(=O)O)C(=O)N[C@H]1CSSC[C@@H](C(=O)N[C@@H](CCSC)C(=O)N[C@@H](CCCCN)C(=O)N[C@@H](CCC(N)=O)C(=O)N[C@@H](CCCCN)C(=O)N[C@@H](CCCCN)C(=O)N[C@@H](CCCCN)C(=O)N[C@@H](CCC(=O)O)C(=O)N[C@@H](Cc2c[nH]c3ccccc23)C(=O)N[C@@H](CCCCN)C(=O)N[C@@H](C)C(=O)NCC(=O)N[C@@H](Cc2c[nH]cn2)C(=O)O)NC(=O)[C@H](C)NC(=O)[C@H](CCCCN)NC(=O)[C@H](Cc2ccccc2)NC(=O)[C@H](Cc2ccc(O)cc2)NC(=O)[C@H](C)NC(=O)[C@H](CCC(N)=O)NC(=O)[C@H](CCCNC(=N)N)NC(=O)[C@H](C)NC1=O` [compound 448] (H-CDATCQFRKAIDDCARQAYFKACMKQKKKEWKAGH-OH; disulfide 1-5, 14-23) here?
A: < 0.01 nM

Q: How did the IC50 turn out when `CC[C@H](C)[C@H](NC(=O)[C@H](C)NC(=O)[C@H](CCCCN)NC(=O)[C@H](CCCNC(=N)N)NC(=O)[C@H](Cc1ccccc1)NC(=O)[C@H](CCC(N)=O)NC(=O)[C@@H]1CSSC[C@H](N)C(=O)N[C@@H](CC(=O)O)C(=O)N[C@@H](C)C(=O)N[C@@H]([C@@H](C)O)C(=O)N1)C(=O)N[C@@H](CC(=O)O)C(=O)N[C@@H](CC(=O)O)C(=O)N[C@H]1CSSC[C@@H](C(=O)N[C@@H](CCSC)C(=O)N[C@@H](CCCCN)C(=O)N[C@@H](CCC(N)=O)C(=O)N[C@@H](CCCCN)C(=O)N[C@@H](CCCCN)C(=O)N[C@@H](CCCCN)C(=O)N[C@@H](CCC(=O)O)C(=O)N[C@@H](Cc2c[nH]c3ccccc23)C(=O)N[C@@H](CCCCN)C(=O)N[C@@H](C)C(=O)NCC(N)=O)NC(=O)[C@H](C)NC(=O)[C@H](CCCCN)NC(=O)[C@H](Cc2ccccc2)NC(=O)[C@H](C(C)C)NC(=O)[C@H](CO)NC(=O)[C@H](CO)NC(=O)[C@H](Cc2c[nH]cn2)NC(=O)[C@H](Cc2ccc(O)cc2)NC(=O)[C@H](C)NC(=O)[C@H](CO)NC(=O)[C@H](CCCNC(=N)N)NC(=O)[C@H](C)NC1=O` [compound 431] (H-CDATCQFRKAIDDCARSAYHSSVFKACMKQKKKEWKAG-NH2; disulfide 1-5, 14-27) was run?
A: < 0.01 nM

Q: For “GSCDATCQFRKAIDDCQKQAHHSNVPGSVFKACMKQKKKEFKAG-NH2 (disulfide 3-7, 16-33) [compound 185]”, which IC50 is on record?
A: 0.01 to 1 nM
